According to patent US4503256A, “Phlorophenone derivatives, processes for preparing such compounds, uses and pharmaceutical compositions of phlorophenone compounds” (Noristan Limited, priority 1981, dated 1985):
Converted amounts (≈) assume the structure as drawn.

Assays:
C. ALBICANS = test: Minimum Inhibitory Concentration (MIC), dilution in Sabouraud liquid medium; assay type: cell-based; settings: 37° C., 5 to 15 days; for MIC: Candida albicans
Procedure: (§1) For testing against the fungi, concentrations of each of the compounds were prepared in Sabouraud liquid medium in two-fold steps from 100 μg/ml to 0.1 μg/ml. 500 μg/ml solutions were prepared by dissolving 10 mg in 5 ml of acetone, made up to 20 ml with Sabouraud liquid medium. 4 ml of the 500 μg/ml concentration was then made up to 20 ml with Sabouraud liquid medium to give a concentration of 100 μg/ml. Serial two-fold dilutions were prepared from this in the same medium down to 0.1 μg/ml.
(§2) For the fungi the same procedure was followed using the concentrations made up in Sabouraud liquid medium. The Nystatin concentrations were also dispensed in 2 ml amounts for each organism. Growth controls of Sabouraud liquid medium were included in each series.
(§3) To each of the prepared sets of concentrations of each compound were added 0.1 ml aliquots of the organism suspensions prepared as described previously. All the bottles were incubated at 37° C. for 48 hours in the case of the bacteria and from 5 to 15 days for the fungi (until growth controls had grown in each case).
(§4) After incubation the broths were examined for evidence of growth. The lowest concentration of the test compound which prevented growth was recorded as the Minimum Inhibitory Concentration (MIC).

Mic. CANIS = test: as above; assay type: cell-based; settings: 37° C., 5 to 15 days; for MIC: Microsporum canis
Procedure: as §1, §2, §3, §4

Tr. RUBRUM = test: as above; assay type: cell-based; settings: 37° C., 5 to 15 days; for MIC: Trichophyton rubrum
Procedure: as §1, §2, §3, §4

Tr. MENTAGROPHYTES = test: as above; assay type: cell-based; settings: 37° C., 5 to 15 days; for MIC: Trichophyton mentagrophytes
Procedure: as §1, §2, §3, §4

Sp. SCHENKII = test: as above; assay type: cell-based; settings: 37° C., 5 to 15 days
Procedure: as §1, §2, §3, §4

S. AUREUS = test: Minimum Inhibitory Concentration (MIC), broth dilution in Brain Heart Infusion broth; assay type: cell-based, Staphylococcus aureus; settings: 37° C., 48 hours, Brain Heart Infusion broth; for MIC: Staphylococcus aureus, read-out: MIC S. AUREUS
Procedure: (§5) For testing against the bacteria, concentrations of each of the compounds were prepared in Brain Heart Infusion broth (Oxoid CM225) in two-fold steps from 1000 μg/ml to 1 μg/ml. Solutions containing 1000 μg/ml were prepared by dissolving 20 mg of each compound in 5 ml of acetone and this was then made up to 20 ml with Brain Heart Infusion Broth. Serial two-fold dilutions were then prepared in the broth down to 1 μg/ml.
(§6) For testing against the bacteria each of the prepared test concentrations and acetone controls prepared in Brain Heart Infusion were dispensed in 2 ml amounts for each organism. A growth control of 2 ml of Brain Heart Infusion was included in each series.
as §3, §4

St. PYOGENES = test: as above; assay type: cell-based; settings: 37° C., 48 hours; for MIC: Streptococcus pyogenes
Procedure: as §5, §6, §3, §4

[1] = Acute oral toxicity in CD-1 mice; assay type: in vivo; settings: mouse, in vivo, male and female CD-1 mice, dose levels 1000, 464, 215 and 100 mg/kg, 7 days observation
Procedure: (§7) Male and female CD-1 mice were fasted for 18 hours prior to the experiment, but water was available ad libitum except during the observation period. The test compounds were prepared in 1% tragacanth and were administered orally to groups of two male and two female mice.
(§8) All compounds were tested at dose levels of 1000, 464, 215 and 100 mg/kg. Immediately after dosing, the mice were replaced in their "home" cage and were observed daily for 7 days post dose and any mortalities recorded.
(§9) The acute toxicities, as determined by the above procedure, of a number of representative compounds are given in the accompanying table.

bacteria = settings: literature (W. Riedl); cited from earlier work
CD-1 mice = test: Acute oral toxicity in CD-1 mice; assay type: in vivo; settings: male and female CD-1 mice, dose levels 1000, 464, 215 and 100 mg/kg, 7 days observation
Procedure: as §7, §8, §9

Row | Compound | MIC (C. ALBICANS) [mg/L] | MIC (Mic. CANIS) [mg/L] | MIC (Tr. RUBRUM) [mg/L] | MIC (Tr. MENTAGROPHYTES) [mg/L] | MIC (Sp. SCHENKII) [mg/L] | MIC (S. AUREUS) [mg/L] | MIC (St. PYOGENES) [mg/L] | LD50 at 168 h [1] [mg/kg] | antibiotic / antibacterial activity (in words) (bacteria) | also measured
1 | CCCC(=O)c1c(O)c2c(c(C(=O)CCC)c1O)OC(C)(C)CC2 [Compound 36, 5,7-Dihydroxy-6,8-dibutyryl-2,2-dimethylchroman] | 100 (≈ 299 µM) | 100 (≈ 299 µM) | 100 (≈ 299 µM) | 100 (≈ 299 µM) | 100 (≈ 299 µM) | 250 (≈ 748 µM) | 64 (≈ 191 µM) | > 1000 | – | –
2 | CCCC(=O)c1c(O)c2c(c(C(=O)CCC)c1O)OC(C)C2 (centres unmarked) [Compound 37, 4,6-dihydroxy-5,7-dibutyryl-2-methyl-2,3-dihydrobenzofuran] | > 100 | > 100 | 100 (≈ 326 µM) | > 100 | > 100 | 125 (≈ 408 µM) | 32 (≈ 104 µM) | > 215 | – | –
3 | CC(C)=CCC1=C(O)C(O)(CC=C(C)C)C(=O)C(C(=O)CC(C)C)=C1O (centres unmarked) [humulon] | – | – | – | – | – | – | – | – | certain antibiotic properties | –
4 | CC(C)=CCC1=C(O)C(C(=O)CC(C)C)=C(O)C(CC=C(C)C)(CC=C(C)C)C1=O [lupulone] | – | – | – | – | – | – | – | – | certain antibiotic properties | –
5 | either 7-butyryl-4,6-dihydroxy-2-methyl-2,3-dihydrobenzofuran or 5-butyryl-4,6-dihydroxy-2-methyl-2,3-dihydrobenzofuran [Compound 35] | – | – | – | – | – | – | – | – | – | MIC C. ALBICANS (C. ALBICANS): 25 mg/L; MIC Mic. CANIS (Mic. CANIS): 12,5 μg/ml; MIC Tr. RUBRUM (Tr. RUBRUM): 25 mg/L; MIC Tr. MENTAGROPHYTES (Tr. MENTAGROPHYTES): 25 mg/L; MIC Sp. SCHENKII (Sp. SCHENKII): 50 mg/L; MIC S. AUREUS (S. AUREUS): 125 mg/L; MIC St. PYOGENES (St. PYOGENES): 32 mg/L; LD50 (CD-1 mice): > 1000
